Structures can show the parent of a compound that is named as a salt.
How the values were obtained:
[1] = tested on: Green Peach Aphid ("GPA") (Myzus persicae) (MYZUPE); experiment: Bioassays on Green Peach Aphid (GPA), foliar spray on infested cabbage seedlings; assay type: in vivo; conditions: 72 h, 200 ppm test solution sprayed on cabbage leaves until runoff, live aphids counted after three days at about 25° C., read-out: MYZUPE rating (% Control of Mortality, Abbott-corrected)
Excerpt: Example A Bioassays on Green Peach Aphid (“GPA”) (Myzus persicae) (MYZUPE.)
GPA is the most significant aphid pest of peach trees, causing decreased growth, shriveling of leaves, and the death of various tissues. It is also hazardous because it acts as a vector for the transport of plant viruses, such as potato virus Y and potato leafroll virus to members of the nightshade/potato family Solanaceae, and various mosaic viruses to many other food crops. GPA attacks such plants as broccoli, burdock, cabbage, carrot, cauliflower, daikon, eggplant, green beans, lettuce, macadamia, papaya, peppers, sweet potatoes, tomatoes, watercress and zucchini among other plants. GPA also attacks many ornamental crops such as carnations, chrysanthemum, flowering white cabbage, poinsettia and roses. GPA has developed resistance to many pesticides.
Several molecules disclosed herein were tested against GPA using procedures described below.
Cabbage seedling grown in 3-in pots, with 2-3 small (3-5 cm) true leaves, were used as test substrate. The seedlings were infested with […] (wingless adult and nymph stages) one day prior to chemical application. Four posts with individual seedlings were used for each treatment. Test compounds (2 mg) were dissolved in 2 mL of acetone/methanol (1:1) solvent, forming stock solutions of 1000 ppm test compound. The stock solutions were diluted 5× with 0.025% Tween 20 in water to obtain the solution at 200 ppm test compound. A hand-held aspirator-type sprayer was used for spraying a solution to both sides of the cabbage leaves until runoff. Reference plants (solvent check) were sprayed with the diluent only containing 20% by volume acetone/methanol (1:1) solvent. Treated plants were held in a holding room for three days at approximately 25° C. and ambient relative humidity (RH) prior to grading. Evaluation was conducted by counting the number of live aphids per plant under a microscope. Percent Control was measured by using Abbott's correction formula (W. S. Abbott, “A Method of Computing the Effectiveness of an Insecticide” J. Econ. Entomol 18 (1925), pp. 265-267) as follows. Corrected % Control=100*(X−Y)/X • where • X=No. of live aphids on solvent check plants and • Y=No. of live aphids on treated plants
The results are indicated in the table entitled “Table 1: GPA (MYZUPE) and sweetpotato whitefly-crawler (BEMITA) Rating Table”.

[2] = tested on: Sweetpotato Whitefly Crawler (Bemisia tabaci) (BEMITA); experiment: Bioassays on Sweetpotato Whitefly Crawler, foliar spray on infested cotton plants; assay type: in vivo; conditions: 200 ppm test solution sprayed on cotton leaves until runoff, live nymphs counted after 8-9 days at 82° F., 50% RH, read-out: BEMITA rating (% Control of Mortality, Abbott-corrected)
Excerpt: Example B Bioassays on Sweetpotato Whitefly Crawler (Bemisia tabaci) (BEMITA.)
The sweetpotato whitefly, Bemisia tabaci (Gennadius), has been recorded in the United States since the late 1800s. In 1986 in Florida, Bemisia tabaci became an extreme economic pest. Whiteflies usually feed on the lower surface of their host plant leaves. From the egg hatches a minute crawler stage that moves about the leaf until it inserts its microscopic, threadlike mouthparts to feed by sucking sap from the phloem. Adults and nymphs excrete honeydew (largely plant sugars from feeding on phloem), a sticky, viscous liquid in which dark sooty molds grow. Heavy infestations of adults and their progeny can cause seedling death, or reduction in vigor and yield of older plants, due simply to sap removal. The honeydew can stick cotton lint together, making it more difficult to gin and therefore reducing its value. Sooty mold grows on honeydew-covered substrates, obscuring the leaf and reducing photosynthesis, and reducing fruit quality grade. It transmitted plant-pathogenic viruses that had never affected cultivated crops and induced plant physiological disorders, such as tomato irregular ripening and squash silverleaf disorder. Whiteflies are resistant to many formerly effective pesticides.
Cotton plants grown in 3-inch pots, with 1 small (3-5 cm) true leaf, were used at test substrate. The plants were placed in a room with whitefly adults. Adults were allowed to deposit eggs for 2-3 days. After a 2-3 day egg-laying period, plants were taken from the adult whitefly room. Adults were blown off leaves using a hand-held Devilbliss sprayer (23 psi). Plants with egg infestation (100-300 eggs per plant) were placed in a holding room for 5-6 days at 82° F. and 50% RH for egg hatch and crawler stage to develop. Four cotton plants were used for each treatment. Compounds (2 mg) were dissolved in 1 mL of acetone solvent, forming stock solutions of 2000 ppm. The stock solutions were diluted 10× with 0.025% Tween 20 in water to obtain a test solution at 200 ppm. A hand-held Devilbliss sprayer was used for spraying a solution to both sides of cotton leaf until runoff. Reference plants (solvent check) were sprayed with the diluent only. Treated plants were held in a holding room for 8-9 days at approximately 82° F. and 50% RH prior to grading. Evaluation was conducted by counting the number of live nymphs per plant under a microscope.

Row | Structure (SMILES) | mortality at 200 ppm [1] | mortality at 200 ppm [2] | melting point
1 | COC(=O)c1cc(Cl)nn1-c1cccnc1 [Compound 6d, Methyl 3-chloro-1-(pyridin-3-yl)-1H-pyrazole-5-carboxylate] | 0 to 80% | < 0% | 
2 | CCOC(=O)C1CC(Cl)=NN1c1cccnc1 (stereo not drawn) [Compound 19.6, Ethyl 3-chloro-1-(pyridin-3-yl)-4,5-dihydro-1H-pyrazole-5-carboxylate] | 0 to 80% | 0 to 80% | 
3 | O=[N+]([O-])c1cn(-c2cccnc2)nc1Cl [Compound 5c, 3-(3-Chloro-4-nitro-1H-pyrazol-1-yl)pyridine] |  |  | 141 to 143 °C
4 | O=C(O)/C=N/Nc1cccnc1 [Compound 6a, (E)-2-((2-Pyridin-3-yl)hydrazono)acetic Acid Hydrochloride] | 0 to 80% | 0 to 80% | 
5 | O=C(O)c1cc(Cl)nn1-c1cccnc1 [Compound 6e, 3-Chloro-1-(pyridine-3-yl)-1H-pyrazole-5-carboxylic Acid Hydrochloride] | 0 to 80% | < 0% | 
6 | N#CC1CC(Cl)=NN1c1cccnc1 (stereo not drawn) [Compound 6b, 3-Chloro-1-(pyridine-3-yl)-4,5-dihydro-1H-pyrazole-5-carbonitrile] | 0 to 80% | < 0% | 
7 | COC(=O)C1CC(Cl)=NN1c1cccnc1 (stereo not drawn) [Compound 6c, Methyl 3-chloro-1-(pyridin-3-yl)-4,5-dihydro-1H-pyrazole-5-carboxylate] | 0 to 80% | 80 to 100% | 
8 | CCOC(=O)C1CC(=O)NN1c1cccnc1 (stereo not drawn) [Compound 18.6, Ethyl 5-oxo-2-(pyridin-3-yl)pyrazolidine-3-carboxylate] | 0 to 80% | 0 to 80% | 
